Earlier results, collected in article PMC4291083, “Ex Vivo Characterization of a Novel Iodine-123-Labelled Aminomethylchroman as a Potential Agonist Ligand for SPECT Imaging of Dopamine D2/3 Receptors” (International Journal of Molecular Imaging, 2014).

Assays:
Parameters in all cases: method as in PMID 24325578
D2 high = settings: in vitro; cited from earlier work
D2 low = settings: in vitro; cited from earlier work
D1 receptor = settings: in vitro; cited from earlier work
D2 receptor = settings: agonism D2 receptor, cited from earlier work
dopamine D4 receptor = settings: in vitro; cited from earlier work

(R) N-[7-hydroxychroman-2-yl]-methyl 4-iodobenzyl amine [compound 1]
Ki (D2 high): 3.79 nM | Ki (D2 low): 51.8 nM | Ki (D1 receptor): 8670 nM | Emax (D2 receptor; cAMP): 86 % of dopamine | pEC50 cAMP (D2 receptor): 9.2 ± 0.4 | binding affinity to dopamine D4 receptor (dopamine D4 receptor): binds with high-affinity
